Source: patent publication US20230398130A1, “METHODS AND COMPOSITIONS FOR DIFFERENTIATING STEM CELLS” (Massachusetts Institute of Technology, priority 2020, published 2023)

Columns and labels:
[1] = tested on: ISC-enriched organoids; experiment: Primary screen, 384-well 2.5-D organoid differentiation (ENR+CD, 6 days, Target Selective Inhibitor Library, vs whole-plate median): ATP (CellTiter-Glo 3D, CTG); settings: for Dose.FC.CTG: FC vs plate median; for Z.CTG: standard z score of FC; for Dose.FC.CTG (log 2 fold change) / Dose.FC.CTG (log 2 fold change, ATP): vs plate median
[2] = tested on: ISC-enriched organoids; experiment: Primary screen, 384-well 2.5-D organoid differentiation (ENR+CD, 6 days): basal lysozyme secretion (LYZ.NS); assay type: cell-based, murine; settings: for Dose.FC.LYZ.NS: FC vs plate median; for Z.LYZ.NS: standard z score of FC; for Dose.FC.LYZ.NS (log 2 fold change) / Dose.FC.LYZ.NS (log 2 fold change, basal lysozyme secretion): vs plate median
From the text: (§1) High-throughput screening.

[3] = tested on: ISC-enriched organoids; experiment: Primary screen, 384-well 2.5-D organoid differentiation (ENR+CD, 6 days): carbachol-induced lysozyme secretion (LYZ.S); assay type: cell-based, murine; settings: for Dose.FC.LYZ.S: FC vs plate median; for Dose.FC.LYZ.S (log 2 fold change) / Dose.FC.LYZ.S (log 2 fold change, carbachol-induced lysozyme secretion): vs plate median
From the text: as §1

[4] = primary screen, dose 0.08 uM, ENR+CD 6 days
[5] = primary screen, dose 0.40 uM, ENR+CD 6 days
[6] = primary screen, dose 2.00 uM, ENR+CD 6 days
[7] = primary screen, dose 10.00 uM, ENR+CD 6 days

COc1cc(F)c(C(C)C)cc1-c1ccc(C(F)(F)F)cc1CN1C(=O)O[C@H](c2cc(C(F)(F)F)cc(C(F)(F)F)c2)[C@@H]1C [Anacetrapib (MK-0859)]
Dose.FC.CTG [1, 4]: −0.090 log 2 fold change | Z.CTG ([1]; primary screen, dose 0.08 uM): −0.214 | Dose.FC.CTG [1, 5]: 0.035 log 2 fold change | Z.CTG ([1]; primary screen, dose 0.40 uM): 0.084 | Dose.FC.CTG [1, 6]: −0.094 log 2 fold change | Z.CTG ([1]; primary screen, dose 2.00 uM): −0.225 | Dose.FC.CTG [1, 7]: 0.031 log 2 fold change | Z.CTG ([1]; primary screen, dose 10.00 uM): 0.075 | Dose.FC.LYZ.NS [2, 4]: 0.013 log 2 fold change | Z.LYZ.NS ([2]; primary screen, dose 0.08 uM): 0.112 | Dose.FC.LYZ.NS [2, 5]: 0.007 log 2 fold change | Z.LYZ.NS ([2]; primary screen, dose 0.40 uM): 0.060 | Dose.FC.LYZ.NS [2, 6]: −0.015 log 2 fold change | Z.LYZ.NS ([2]; primary screen, dose 2.00 uM): −0.129 | Dose.FC.LYZ.NS [2, 7]: −0.036 log 2 fold change | Z.LYZ.NS ([2]; primary screen, dose 10.00 uM): −0.314 | Dose.FC.LYZ.S [3, 4]: 0.051 log 2 fold change | Dose.FC.LYZ.S [3, 5]: −0.002 log 2 fold change | Dose.FC.LYZ.S [3, 6]: −0.046 log 2 fold change | Dose.FC.LYZ.S [3, 7]: −0.036 log 2 fold change

COc1cc2c(N3CCN(C(=O)Nc4ccc(OC(C)C)cc4)CC3)ncnc2cc1OCCCN1CCCCC1 [Tandutinib (MLN518)]
Z.CTG (standard z score) ([1]; Dose 0.08 uM, primary screen): 1.397 | Dose.FC.CTG (log 2 fold change) ([1]; Dose 0.08 uM, primary screen): 0.585 | Z.CTG (standard z score) ([1]; Dose 0.40 uM, primary screen): 0.845 | Dose.FC.CTG (log 2 fold change) ([1]; Dose 0.40 uM, primary screen): 0.354 | Z.CTG (standard z score) ([1]; Dose 2.00 uM, primary screen): 0.856 | Dose.FC.CTG (log 2 fold change) ([1]; Dose 2.00 uM, primary screen): 0.358 | Z.CTG (standard z score) ([1]; Dose 10.00 uM, primary screen): 1.401 | Dose.FC.CTG (log 2 fold change) ([1]; Dose 10.00 uM, primary screen): 0.586 | Z.LYZ.NS (standard z score) ([2]; Dose 0.08 uM, primary screen): 0.828 | Dose.FC.LYZ.NS (log 2 fold change) ([2]; Dose 0.08 uM, primary screen): 0.095 | Z.LYZ.NS (standard z score) ([2]; Dose 0.40 uM, primary screen): 1.066 | Dose.FC.LYZ.NS (log 2 fold change) ([2]; Dose 0.40 uM, primary screen): 0.122 | Z.LYZ.NS (standard z score) ([2]; Dose 2.00 uM, primary screen): 1.012 | Dose.FC.LYZ.NS (log 2 fold change) ([2]; Dose 2.00 uM, primary screen): 0.116 | Z.LYZ.NS (standard z score) ([2]; Dose 10.00 uM, primary screen): 0.407 | Dose.FC.LYZ.NS (log 2 fold change) ([2]; Dose 10.00 uM, primary screen): 0.047 | Dose.FC.LYZ.S (log 2 fold change) ([3]; Dose 0.08 uM, primary screen): 0.145 | Dose.FC.LYZ.S (log 2 fold change) ([3]; Dose 0.40 uM, primary screen): 0.178 | Dose.FC.LYZ.S (log 2 fold change) ([3]; Dose 2.00 uM, primary screen): 0.093 | Dose.FC.LYZ.S (log 2 fold change) ([3]; Dose 10.00 uM, primary screen): 0.100

Cn1cc(C2=C(c3cn(C4CCN(Cc5ccccn5)CC4)c4ccccc34)C(=O)NC2=O)c2ccccc21 [Enzastaurin (LY317615)]
Dose.FC.CTG ([1]; Dose 0.08 uM, ENR+CD, 6 days): 0.236 log 2 fold change | Z.CTG ([1]; Dose 0.08 uM): 0.565 | Dose.FC.CTG ([1]; Dose 0.40 uM, ENR+CD, 6 days): 0.475 log 2 fold change | Z.CTG ([1]; Dose 0.40 uM): 1.135 | Dose.FC.CTG ([1]; Dose 2.00 uM, ENR+CD, 6 days): 0.251 log 2 fold change | Z.CTG ([1]; Dose 2.00 uM): 0.600 | Dose.FC.CTG ([1]; Dose 10.00 uM, ENR+CD, 6 days): −0.081 log 2 fold change | Z.CTG ([1]; Dose 10.00 uM): −0.194 | Dose.FC.LYZ.NS ([2]; Dose 0.08 uM, ENR+CD, 6 days): 0.085 log 2 fold change | Z.LYZ.NS ([2]; Dose 0.08 uM): 0.744 | Dose.FC.LYZ.NS ([2]; Dose 0.40 uM, ENR+CD, 6 days): 0.131 log 2 fold change | Z.LYZ.NS ([2]; Dose 0.40 uM): 1.143 | Dose.FC.LYZ.NS ([2]; Dose 2.00 uM, ENR+CD, 6 days): 0.053 log 2 fold change | Z.LYZ.NS ([2]; Dose 2.00 uM): 0.458 | Dose.FC.LYZ.NS ([2]; Dose 10.00 uM, ENR+CD, 6 days): −0.116 log 2 fold change | Z.LYZ.NS ([2]; Dose 10.00 uM): −1.012 | Dose.FC.LYZ.S ([3]; Dose 0.08 uM, ENR+CD, 6 days): 0.109 log 2 fold change | Dose.FC.LYZ.S ([3]; Dose 0.40 uM, ENR+CD, 6 days): 0.251 log 2 fold change | Dose.FC.LYZ.S ([3]; Dose 2.00 uM, ENR+CD, 6 days): 0.053 log 2 fold change | Dose.FC.LYZ.S ([3]; Dose 10.00 uM, ENR+CD, 6 days): −0.226 log 2 fold change

CC(C)(Cc1ccc2ccccc2c1)NC[C@@H](O)COc1cccc(Cl)c1C#N [NPS-2143]
Dose.FC.CTG ([1]; Dose 0.08 uM, primary screen): 0.149 log 2 fold change | Z.CTG ([1]; Dose 0.08 uM): 0.356 | Dose.FC.CTG ([1]; Dose 0.40 uM, primary screen): −0.195 log 2 fold change | Z.CTG ([1]; Dose 0.40 uM): −0.466 | Dose.FC.CTG ([1]; Dose 2.00 uM, primary screen): −0.246 log 2 fold change | Z.CTG ([1]; Dose 2.00 uM): −0.587 | Dose.FC.CTG ([1]; Dose 10.00 uM, primary screen): −0.118 log 2 fold change | Z.CTG ([1]; Dose 10.00 uM): −0.282 | Dose.FC.LYZ.NS ([2]; Dose 0.08 uM, primary screen): 0.162 log 2 fold change | Z.LYZ.NS ([2]; Dose 0.08 uM): 1.413 | Dose.FC.LYZ.NS ([2]; Dose 0.40 uM, primary screen): −0.048 log 2 fold change | Z.LYZ.NS ([2]; Dose 0.40 uM): −0.416 | Dose.FC.LYZ.NS ([2]; Dose 2.00 uM, primary screen): −0.077 log 2 fold change | Z.LYZ.NS ([2]; Dose 2.00 uM): −0.674 | Dose.FC.LYZ.NS ([2]; Dose 10.00 uM, primary screen): −0.069 log 2 fold change | Z.LYZ.NS ([2]; Dose 10.00 uM): −0.597 | Dose.FC.LYZ.S ([3]; Dose 0.08 uM, primary screen): 0.147 log 2 fold change | Dose.FC.LYZ.S ([3]; Dose 0.40 uM, primary screen): −0.062 log 2 fold change | Dose.FC.LYZ.S ([3]; Dose 2.00 uM, primary screen): −0.161 log 2 fold change | Dose.FC.LYZ.S ([3]; Dose 10.00 uM, primary screen): −0.116 log 2 fold change

COc1cc2/c(=N/c3ccc(Br)cc3F)nc[nH]c2cc1OCC1CCN(C)CC1 [Vandetanib (ZD6474)]
Z.CTG (standard z score) ([1]; dose 0.08 uM): −1.547 | Dose.FC.CTG (log 2 fold change, ATP) ([1]; dose 0.08 uM): −0.648 | Z.CTG (standard z score) ([1]; dose 0.40 uM): −0.874 | Dose.FC.CTG (log 2 fold change, ATP) ([1]; dose 0.40 uM): −0.366 | Z.CTG (standard z score) ([1]; dose 2.00 uM): −2.089 | Dose.FC.CTG (log 2 fold change, ATP) ([1]; dose 2.00 uM): −0.874 | Z.CTG (standard z score) ([1]; dose 10.00 uM): −2.880 | Dose.FC.CTG (log 2 fold change, ATP) ([1]; dose 10.00 uM): −1.206 | Z.LYZ.NS (standard z score) ([2]; dose 0.08 uM): −0.594 | Dose.FC.LYZ.NS (log 2 fold change, basal lysozyme secretion) ([2]; dose 0.08 uM): −0.068 | Z.LYZ.NS (standard z score) ([2]; dose 0.40 uM): −0.792 | Dose.FC.LYZ.NS (log 2 fold change, basal lysozyme secretion) ([2]; dose 0.40 uM): −0.091 | Z.LYZ.NS (standard z score) ([2]; dose 2.00 uM): −2.356 | Dose.FC.LYZ.NS (log 2 fold change, basal lysozyme secretion) ([2]; dose 2.00 uM): −0.271 | Z.LYZ.NS (standard z score) ([2]; dose 10.00 uM): −2.594 | Dose.FC.LYZ.NS (log 2 fold change, basal lysozyme secretion) ([2]; dose 10.00 uM): −0.298 | Dose.FC.LYZ.S (log 2 fold change, carbachol-induced lysozyme secretion) ([3]; dose 0.08 uM): −0.139 | Dose.FC.LYZ.S (log 2 fold change, carbachol-induced lysozyme secretion) ([3]; dose 0.40 uM): −0.054 | Dose.FC.LYZ.S (log 2 fold change, carbachol-induced lysozyme secretion) ([3]; dose 2.00 uM): −0.384 | Dose.FC.LYZ.S (log 2 fold change, carbachol-induced lysozyme secretion) ([3]; dose 10.00 uM): −0.494

CS(=O)(=O)N1CCN(Cc2cc3nc(-c4cccc5[nH]ncc45)nc(N4CCOCC4)c3s2)CC1 [GDC-0941]
Dose.FC.CTG ([1]; Dose 0.08 uM, ENR+CD, 6 days): 0.283 log 2 fold change | Z.CTG ([1]; Dose 0.08 uM): 0.677 | Dose.FC.CTG ([1]; Dose 0.40 uM, ENR+CD, 6 days): 0.022 log 2 fold change | Z.CTG ([1]; Dose 0.40 uM): 0.053 | Dose.FC.CTG ([1]; Dose 2.00 uM, ENR+CD, 6 days): −0.197 log 2 fold change | Z.CTG ([1]; Dose 2.00 uM): −0.472 | Dose.FC.CTG ([1]; Dose 10.00 uM, ENR+CD, 6 days): −1.223 log 2 fold change | Z.CTG ([1]; Dose 10.00 uM): −2.921 | Dose.FC.LYZ.NS ([2]; Dose 0.08 uM, ENR+CD, 6 days): 0.008 log 2 fold change | Z.LYZ.NS ([2]; Dose 0.08 uM): 0.070 | Dose.FC.LYZ.NS ([2]; Dose 0.40 uM, ENR+CD, 6 days): −0.013 log 2 fold change | Z.LYZ.NS ([2]; Dose 0.40 uM): −0.112 | Dose.FC.LYZ.NS ([2]; Dose 2.00 uM, ENR+CD, 6 days): −0.128 log 2 fold change | Z.LYZ.NS ([2]; Dose 2.00 uM): −1.113 | Dose.FC.LYZ.NS ([2]; Dose 10.00 uM, ENR+CD, 6 days): −0.156 log 2 fold change | Z.LYZ.NS ([2]; Dose 10.00 uM): −1.362 | Dose.FC.LYZ.S ([3]; Dose 0.08 uM, ENR+CD, 6 days): 0.018 log 2 fold change | Dose.FC.LYZ.S ([3]; Dose 0.40 uM, ENR+CD, 6 days): −0.076 log 2 fold change | Dose.FC.LYZ.S ([3]; Dose 2.00 uM, ENR+CD, 6 days): −0.248 log 2 fold change | Dose.FC.LYZ.S ([3]; Dose 10.00 uM, ENR+CD, 6 days): −0.257 log 2 fold change
